We go through 27 compounds from patent publication US20080114007A1 (priority 2006, published 2008).

The target of this experiment is CSF-1R (Homo sapiens, UniProt P07333). As to the kind of experiment: Peptide (non-phosphorylated) assay, fluorescence polarization competition immunoassay. In kind it is biochemical. The conditions noted are these: 0.7 nM CSF-1R, 308 μM SYEGNSYTFIDPTQ peptide, 1 mM ATP, 80 min; mean of at least three determinations; read-out: c-fms Peptide IC50. The procedure, abridged: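 Human CSF-1R kinase reaction started with ATP and run 80 min at room temperature, then stopped with EDTA. Phosphopeptide detected by fluorescence polarization competition using anti-phosphotyrosine antibody and PTK green tracer after 30 min. Controls used 4% DMSO, with EDTA added before reaction start for positive controls.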
CSF-1R, sequence (P07333 20-972): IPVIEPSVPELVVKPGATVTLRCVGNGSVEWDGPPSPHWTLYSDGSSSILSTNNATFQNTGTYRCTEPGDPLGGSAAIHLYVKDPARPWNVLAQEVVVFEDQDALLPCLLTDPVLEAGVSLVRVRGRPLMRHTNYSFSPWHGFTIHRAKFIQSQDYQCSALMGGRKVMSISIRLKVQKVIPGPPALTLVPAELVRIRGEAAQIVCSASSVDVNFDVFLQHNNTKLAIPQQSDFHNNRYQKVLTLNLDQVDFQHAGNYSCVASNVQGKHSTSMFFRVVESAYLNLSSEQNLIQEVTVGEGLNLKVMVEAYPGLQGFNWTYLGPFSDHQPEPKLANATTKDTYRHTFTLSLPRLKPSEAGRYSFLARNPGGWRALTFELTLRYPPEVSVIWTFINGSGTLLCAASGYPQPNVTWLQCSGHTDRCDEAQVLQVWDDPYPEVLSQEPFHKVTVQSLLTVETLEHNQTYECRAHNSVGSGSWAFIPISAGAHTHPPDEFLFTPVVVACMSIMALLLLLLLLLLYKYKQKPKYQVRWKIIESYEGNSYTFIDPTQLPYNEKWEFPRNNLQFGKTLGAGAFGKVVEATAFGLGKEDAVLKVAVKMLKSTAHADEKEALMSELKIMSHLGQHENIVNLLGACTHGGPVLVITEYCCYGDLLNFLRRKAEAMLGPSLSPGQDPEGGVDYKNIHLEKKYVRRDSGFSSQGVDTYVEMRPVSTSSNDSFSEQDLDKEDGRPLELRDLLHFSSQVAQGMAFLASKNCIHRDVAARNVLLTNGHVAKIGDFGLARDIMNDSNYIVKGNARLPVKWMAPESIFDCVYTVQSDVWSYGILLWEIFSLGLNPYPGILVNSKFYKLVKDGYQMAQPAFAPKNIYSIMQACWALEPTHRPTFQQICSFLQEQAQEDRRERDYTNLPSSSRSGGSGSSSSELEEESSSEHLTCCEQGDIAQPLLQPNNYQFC
The IC50 is the concentration that inhibits the measured activity by half. In the case of `CCc1cccc(-n2cc(C(=O)NOC)c(=O)c3cnc(Nc4ccc(C5CCN(C)CC5)cc4)nc32)c1` [Cpd 212, 8-(3-ethyl-phenyl)-2-[4-(1-methyl-piperidin-4-yl)-phenylamino]-5-oxo-5,8-dihydro-pyrido[2,3-d]pyrimidine-6-carboxylic acid methoxy-amide], the IC50 was found to be 0.36 nM. Turning to `CCc1ccc(-n2cc(C(=O)NOC)c(=O)c3cnc(Nc4cccc(N(C)C)c4)nc32)cc1` [Cpd 319, 2-(3-dimethylamino-phenylamino)-8-(4-ethyl-phenyl)-5-oxo-5,8-dihydro-pyrido[2,3-d]pyrimidine-6-carboxylic acid methoxy-amide], the IC50 is 1.7 nM. For `CNCCS(=O)(=O)c1cccc(Nc2ncc3c(=O)c(C(=O)NOC)cn(-c4ccc5c(c4)CCC5)c3n2)c1` [Cpd 231, 8-indan-5-yl-2-[3-(2-methylamino-ethanesulfonyl)-phenylamino]-5-oxo-5,8-dihydro-pyrido[2,3-d]pyrimidine-6-carboxylic acid methoxy-amide] the value was 0.71 nM. Next, `CONC(=O)c1cn(-c2ccc3c(c2)CCC3)c2nc(Nc3ccc(CCN4CCC(=O)CC4)cc3)ncc2c1=O` [Cpd 83, 8-indan-5-yl-5-oxo-2-{4-[2-(4-oxo-piperidin-1-yl)-ethyl]-phenylamino}-5,8-dihydro-pyrido[2,3-d]pyrimidine-6-carboxylic acid methoxy-amide]: 1 nM; `CONC(=O)c1cn(-c2ccc3c(c2)CCC3)c2nc(Nc3ccc(C4CCN(CCS(C)(=O)=O)CC4)cc3)ncc2c1=O` [Cpd 78, 8-indan-5-yl-2-{4-[1-(2-methanesulfonyl-ethyl)-piperidin-4-yl]-phenylamino}-5-oxo-5,8-dihydro-pyrido[2,3-d]pyrimidine-6-carboxylic acid methoxy-amide]: 0.72 nM; `CC(C)ONC(=O)c1cn(C2CCCCC2)c2nc(Nc3ccc(CCN4CCCC4)cc3)ncc2c1=O` [Cpd 16, 8-cyclohexyl-5-oxo-2-[4-(2-pyrrolidin-1-yl-ethyl)-phenylamino]-5,8-dihydro-pyrido[2,3-d]pyrimidine-6-carboxylic acid isopropoxy-amide]: 0.64 nM. For `CONC(=O)c1cn(C2CCCC2)c2nc(Nc3ccc(CN4CCCC4=O)cc3)ncc2c1=O` [Cpd 37, 8-cyclopentyl-5-oxo-2-[4-(2-oxo-pyrrolidin-1-ylmethyl)-phenylamino]-5,8-dihydro-pyrido[2,3-d]pyrimidine-6-carboxylic acid methoxy-amide] the value was 1.5 nM; for `CCONC(=O)c1cn(-c2ccc3c(c2)CCC3)c2nc(Nc3ccc(S(=O)(=O)N(C)C)cc3)ncc2c1=O` [Cpd 136, 2-(4-dimethylsulfamoyl-phenylamino)-8-indan-5-yl-5-oxo-5,8-dihydro-pyrido[2,3-d]pyrimidine-6-carboxylic acid ethoxy-amide], 4.2 nM. On to `CONC(=O)c1cn(-c2ccc3c(c2)CCC3)c2nc(Nc3ccc(CCS(=O)(=O)NC(C)C)cc3)ncc2c1=O` [Cpd 77, 8-indan-5-yl-2-[4-(2-isopropylsulfamoyl-ethyl)-phenylamino]-5-oxo-5,8-dihydro-pyrido[2,3-d]pyrimidine-6-carboxylic acid methoxy-amide], for which the IC50 amounted to 0.95 nM. For `CCc1ccc(-n2cc(C(=O)NOC)c(=O)c3cnc(Nc4cccc(OCCOC)c4)nc32)cc1` [Cpd 215, 8-(4-ethyl-phenyl)-2-[3-(2-methoxy-ethoxy)-phenylamino]-5-oxo-5,8-dihydro-pyrido[2,3-d]pyrimidine-6-carboxylic acid methoxy-amide] the value was 1 nM; for `CONC(=O)c1cn(-c2ccc(C)c(C)c2)c2nc(Nc3ccc(CCN4CCCC4)cc3)ncc2c1=O` [Cpd 51, 8-(3,4-dimethyl-phenyl)-5-oxo-2-[4-(2-pyrrolidin-1-yl-ethyl)-phenylamino]-5,8-dihydro-pyrido[2,3-d]pyrimidine-6-carboxylic acid methoxy-amide], 0.63 nM; for `CONC(=O)c1cn(-c2ccc3c(c2)CCC3)c2nc(Nc3ccc(CCN4CCC4)cc3)ncc2c1=O` [Cpd 262, 2-[4-(2-azetidin-1-yl-ethyl)-phenylamino]-8-indan-5-yl-5-oxo-5,8-dihydro-pyrido[2,3-d]pyrimidine-6-carboxylic acid methoxy-amide], 0.59 nM.

`CCN1CCCC(Oc2cccc(Nc3ncc4c(=O)c(C(=O)NOC)cn(-c5ccc6c(c5)CCC6)c4n3)c2)C1` (stereo not drawn) [Cpd 251, 2-[3-(1-ethyl-piperidin-3-yloxy)-phenylamino]-8-indan-5-yl-5-oxo-5,8-dihydro-pyrido[2,3-d]pyrimidine-6-carboxylic acid methoxy-amide]: the IC50 is 0.93 nM.

`CONC(=O)c1cn(-c2ccc3c(c2)CCC3)c2nc(Nc3cccc(N(C)C)c3)ncc2c1=O` [Cpd 326, 2-(3-dimethylamino-phenylamino)-8-indan-5-yl-5-oxo-5,8-dihydro-pyrido[2,3-d]pyrimidine-6-carboxylic acid methoxy-amide]: the IC50 came to 1.1 nM. Next, `CONC(=O)c1cn(-c2ccc3c(c2)CCC3)c2nc(Nc3ccc(CCCN4CCN(C)CC4)cc3)ncc2c1=O` [Cpd 151, 8-indan-5-yl-2-{4-[3-(4-methylpiperazin-1-yl)-propyl]-phenylamino}-5-oxo-5,8-dihydro-pyrido[2,3-d]pyrimidine-6-carboxylic acid methoxy-amide]: 1.5 nM; `CCc1ccc(-n2cc(C(=O)NOC)c(=O)c3cnc(Nc4ccc5c(c4)CNCC5)nc32)cc1` [Cpd 282, 8-(4-ethyl-phenyl)-5-oxo-2-(1,2,3,4-tetrahydro-isoquinolin-7-ylamino)-5,8-dihydro-pyrido[2,3-d]pyrimidine-6-carboxylic acid methoxy-amide]: 0.2 nM; `CONC(=O)c1cn(C2CCCC2)c2nc(Nc3ccc(C(=O)N4CCCC4)cc3)ncc2c1=O` [Cpd 36, 8-cyclopentyl-5-oxo-2-[4-(pyrrolidine-1-carbonyl)-phenylamino]-5,8-dihydro-pyrido[2,3-d]pyrimidine-6-carboxylic acid methoxy-amide]: 2.1 nM. Next, `CCc1ccc(-n2cc(C(=O)NOC(C)C)c(=O)c3cnc(Nc4ccc(C5CCN(CCO)CC5)cc4)nc32)cc1` [Cpd 184, 8-(4-ethyl-phenyl)-2-{4-[1-(2-hydroxy-ethyl)-piperidin-4-yl]-phenylamino}-5-oxo-5,8-dihydro-pyrido[2,3-d]pyrimidine-6-carboxylic acid isopropoxy-amide]: 0.9 nM; `CONC(=O)c1cn(C2CCCCC2)c2nc(Nc3ccc(C4CCN(C(C)=O)CC4)cc3)ncc2c1=O` [Cpd 28, 2-[4-(1-acetyl-piperidin-4-yl)-phenylamino]-8-cyclohexyl-5-oxo-5,8-dihydro-pyrido[2,3-d]pyrimidine-6-carboxylic acid methoxy-amide]: 2.2 nM. Regarding `CCc1ccc(-n2cc(C(=O)NOC)c(=O)c3cnc(Nc4ccc(CC(=O)NNC)cc4)nc32)cc1` [Cpd 106, 8-(4-ethyl-phenyl)-2-[4-(N′-methyl-hydrazinocarbonylmethyl)-phenylamino]-5-oxo-5,8-dihydro-pyrido[2,3-d]pyrimidine-6-carboxylic acid methoxy-amide], the IC50 amounted to 1.6 nM. Next, `CCc1ccc(-n2cc(C(=O)NOC)c(=O)c3cnc(Nc4ccc(C5CCN(CCc6ccccc6)CC5)cc4)nc32)cc1` [Cpd 295, 8-(4-ethyl-phenyl)-5-oxo-2-[4-(1-phenethyl-piperidin-4-yl)-phenylamino]-5,8-dihydro-pyrido[2,3-d]pyrimidine-6-carboxylic acid methoxy-amide]: 1.2 nM; `CONC(=O)c1cn(C2CCCCC2)c2nc(Nc3ccc(CCN4CCCC4=O)cc3)ncc2c1=O` [Cpd 13, 8-cyclohexyl-5-oxo-2-{4-[2-(2-oxo-pyrrolidin-1-yl)-ethyl]-phenylamino}-5,8-dihydro-pyrido[2,3-d]pyrimidine-6-carboxylic acid methoxy-amide]: 1.6 nM.

For the compound `CCc1ccc(-n2cc(C(=O)NOC)c(=O)c3cnc(Nc4cc(OC)c(OC)c(OC)c4)nc32)cc1` [Cpd 305, 8-(4-ethyl-phenyl)-5-oxo-2-(3,4,5-trimethoxy-phenylamino)-5,8-dihydro-pyrido[2,3-d]pyrimidine-6-carboxylic acid methoxy-amide], the IC50 amounted to 0.7 nM. For `CCc1ccc(-n2cc(C(=O)NOC)c(=O)c3cnc(Nc4ccc(CCN5CC(F)C5)cc4)nc32)cc1` [Cpd 265, 8-(4-ethyl-phenyl)-2-{4-[2-(3-fluoro-azetidin-1-yl)-ethyl]-phenylamino}-5-oxo-5,8-dihydro-pyrido[2,3-d]pyrimidine-6-carboxylic acid methoxy-amide] the value was 0.57 nM; for `CONC(=O)c1cn(-c2ccc3c(c2)CCC3)c2nc(Nc3ccc(C4CCN(CCO)CC4)cc3)ncc2c1=O` [Cpd 88, 2-{4-[1-(2-hydroxy-ethyl)-piperidin-4-yl]-phenylamino}-8-indan-5-yl-5-oxo-5,8-dihydro-pyrido[2,3-d]pyrimidine-6-carboxylic acid methoxy-amide], 1.3 nM; for `CCONC(=O)c1cn(-c2ccc(CC)cc2)c2nc(Nc3ccc(C4CCN(CC)CC4)cc3)ncc2c1=O` [Cpd 181, 8-(4-ethyl-phenyl)-2-[4-(1-ethyl-piperidin-4-yl)-phenylamino]-5-oxo-5,8-dihydro-pyrido[2,3-d]pyrimidine-6-carboxylic acid ethoxy-amide], 0.2 nM. For `CONC(=O)c1cn(-c2ccc3c(c2)CCC3)c2nc(Nc3cccc(CCN4CCS(=O)(=O)CC4)c3)ncc2c1=O` [Cpd 205, 2-{3-[2-(1,1-dioxo-1λ^6-thiomorpholin-4-yl)-ethyl]-phenylamino}-8-indan-5-yl-5-oxo-5,8-dihydro-pyrido[2,3-d]pyrimidine-6-carboxylic acid methoxy-amide] the value was 1 nM.
